Where two headings read alike, the source gives them in different places. Where a SMILES comes first, the peptide text is derived from it. Bridges are numbered along the chain shown (N, C = ends). [ ]: non-standard residue; d: D form. The star is where a group is joined. hPhe(3,5-F2-4-CF3) = N[C@@H](CCc1cc(F)c(C(F)(F)F)c(F)c1)C(=O)O; NPrPhe(4-CF3) = CCCN[C@@H](Cc1ccc(C(F)(F)F)cc1)C(=O)O; NMeGly(cPent) = CN[C@H](C(=O)O)C1CCCC1; Ac4c(3,3-F2) = NC1(C(=O)O)CC(F)(F)C1; NMeD = CN[C@@H](CC(=O)O)C(=O)O; NMeL = CN[C@@H](CC(C)C)C(=O)O; αMeS = C[C@](N)(CO)C(=O)O; Morpholide = C1CN(*)CCO1; Aze = O=C(O)[C@@H]1CCN1; Sar = CNCC(=O)O; Allyl = C=CC*
How the values were obtained:
[1] = biological target: GDP-bound HRAS wild-type protein (Homo sapiens, UniProt P01112); experiment: Binding to HRAS by surface plasmon resonance (SPR), Single Cycle Kinetics; conditions: for HRAS/KRAS (ratio of KD value with respect to HRAS to KD value with respect to KRAS) / HRAS/KRAS (ratio of KD value for HRAS to KD value for KRAS): SPR, GDP-bound HRAS wild-type protein vs GDP-bound KRAS wild-type protein
[2] = biological target: GDP-bound KRAS wild-type protein (Homo sapiens, UniProt P01116); experiment: Binding to KRAS by surface plasmon resonance (SPR), Single Cycle Kinetics; conditions: GDP-bound KRAS wild-type protein, read-out: KRAS KD
[3] = biological target: GDP-bound NRAS wild-type protein (Homo sapiens, UniProt P01111); experiment: Binding to NRAS by surface plasmon resonance (SPR), Single Cycle Kinetics; conditions: for NRAS/KRAS (ratio of KD value with respect to NRAS to KD value with respect to KRAS) / NRAS/KRAS (ratio of KD value for NRAS to KD value for KRAS): SPR, GDP-bound NRAS wild-type protein vs GDP-bound KRAS wild-type protein
[4] = SPR Single Cycle Kinetics, 1:1 binding model

GDP-bound KRAS wild-type protein, sequence (P01116 whole entry): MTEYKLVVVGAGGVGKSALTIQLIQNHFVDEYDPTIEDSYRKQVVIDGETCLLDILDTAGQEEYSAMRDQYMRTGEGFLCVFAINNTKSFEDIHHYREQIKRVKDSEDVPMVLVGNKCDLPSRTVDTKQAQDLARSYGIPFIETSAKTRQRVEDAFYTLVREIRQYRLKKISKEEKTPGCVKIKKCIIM
GDP-bound HRAS wild-type protein, sequence (P01112 whole entry): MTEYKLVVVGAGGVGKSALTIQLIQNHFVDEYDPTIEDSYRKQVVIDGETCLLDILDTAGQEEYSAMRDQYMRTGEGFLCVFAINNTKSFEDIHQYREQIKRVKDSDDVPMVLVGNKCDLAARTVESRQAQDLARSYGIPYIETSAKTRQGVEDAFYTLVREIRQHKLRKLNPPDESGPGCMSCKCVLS
GDP-bound NRAS wild-type protein, sequence (P01111 whole entry): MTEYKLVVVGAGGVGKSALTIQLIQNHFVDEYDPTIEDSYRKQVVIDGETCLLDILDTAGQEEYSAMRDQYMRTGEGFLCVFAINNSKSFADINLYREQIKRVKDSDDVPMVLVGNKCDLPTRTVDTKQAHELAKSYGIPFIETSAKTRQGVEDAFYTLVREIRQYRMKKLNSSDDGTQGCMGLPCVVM

C=CCOC[C@]1(C)NC(=O)[C@@H]2CCCN2C(=O)[C@H](CCc2cc(F)c(C(F)(F)F)c(F)c2)NC(=O)CN(C)C(=O)[C@H](Cc2ccc(C(F)(F)F)cc2)N(CCC)C(=O)CN(C)C(=O)CN(C)C(=O)[C@H]([C@@H](C)CC)NC(=O)[C@H](CC(C)C)N(C)C(=O)C[C@@H](C(=O)N(C)C)N(C)C(=O)[C@H](C2CCCC2)N(C)C1=O [PP0742] ([NMeL]I[Sar][Sar][NPrPhe(4-CF3)][Sar][hPhe(3,5-F2-4-CF3)]P[αMeS](Allyl)[NMeGly(cPent)][NMeD]-NMe2; lactam N-11)
HRAS/KRAS (ratio of KD value with respect to HRAS to KD value with respect to KRAS) [1]: B (a compound having 3 or more and less than 10 is denoted as B)
Kd [2, 4]: 510 pM
NRAS/KRAS (ratio of KD value with respect to NRAS to KD value with respect to KRAS) [3]: B (a compound having 3 or more and less than 10 is denoted as B)

CCC[C@H]1C(=O)N[C@@H]([C@@H](C)CC)C(=O)N(C)CC(=O)N(C)[C@H]2C/C=C\CCN(C2=O)[C@@H](Cc2ccc(C(F)(F)F)cc2)C(=O)N(C)CC(=O)N[C@@H](CCc2ccc3ccn(C)c3c2)C(=O)N2C[C@H](OCC)C[C@H]2C(=O)NC2(CC(C)(C)C2)C(=O)N(C)[C@@H](C(CC)CC)C(=O)N(C)[C@H](C(=O)N(C)C)CC(=O)N1C [PP2912]
HRAS/KRAS (ratio of KD value with respect to GDP-bound HRAS wild-type protein to KD value with respect to KRAS) ([1]; SPR KD ratio HRAS/KRAS, class symbols): A (a compound having 10 or more and less than 20 is denoted as A)
Kd [2, 4]: 8700 pM
NRAS/KRAS (ratio of KD value with respect to GDP-bound NRAS wild-type protein to KD value with respect to KRAS) ([3]; SPR KD ratio NRAS/KRAS, class symbols): AA (a compound having 20 or more is denoted as AA)

CC[C@H](C)[C@@H]1NC(=O)[C@H](CC2CC2)N(C)C(=O)C[C@@H](C(=O)N2CCCC2)N(C)C(=O)[C@H](C2CCCC2)N(C)C(=O)C2(CCC2)NC(=O)[C@@H]2CC(F)(F)CN2C(=O)[C@H](CCc2cc(F)c(C(F)(F)F)c(F)c2)NC(=O)CN(C)C(=O)[C@H](Cc2ccc(C(F)(F)F)cc2)N2CC/C=C\C[C@@H](C2=O)N(C)C(=O)CN(C)C1=O [PP1512]
HRAS/KRAS (ratio of KD value for HRAS to KD value for KRAS) ([1]; KD ratio class): A (a compound having 10 or more and less than 20 is denoted as A)
Kd ([2]; SPR, Single Cycle Kinetics, 1:1 binding model): 84 pM
NRAS/KRAS (ratio of KD value for NRAS to KD value for KRAS) ([3]; KD ratio class): AA (a compound having 20 or more is denoted as AA)

CCCN1C(=O)CN(C)C(=O)[C@@H]2CCN2C(=O)[C@H]([C@@H](C)CC)NC(=O)[C@H](CC(C)C)N(C)C(=O)C[C@@H](C(=O)N2CCOCC2)N(C)C(=O)[C@H](C2CCCC2)N(C)C(=O)C2(CC(F)(F)C2)NC(=O)[C@@H]2CCCN2C(=O)[C@H](CCc2cc(F)c(C(F)(F)F)c(F)c2)NC(=O)CN(C)C(=O)[C@@H]1Cc1ccc(C(F)(F)F)cc1 [PP0783] ([NMeL]I[Aze][Sar][NPrPhe(4-CF3)][Sar][hPhe(3,5-F2-4-CF3)]P[Ac4c(3,3-F2)][NMeGly(cPent)][NMeD]-Morpholide; lactam N-11)
HRAS/KRAS (ratio of KD value with respect to HRAS to KD value with respect to KRAS) [1]: B (a compound having 3 or more and less than 10 is denoted as B)
Kd [2, 4]: 850 pM
NRAS/KRAS (ratio of KD value with respect to NRAS to KD value with respect to KRAS) [3]: B (a compound having 3 or more and less than 10 is denoted as B)

CCO[C@@H]1C[C@H]2C(=O)NC3(CCC3)C(=O)N(C)[C@@H](C3CCCC3)C(=O)N(CC)[C@H](C(=O)N3CCOCC3)CC(=O)N(C)[C@@H](Cc3ccccc3)C(=O)N[C@@H]([C@@H](C)CC)C(=O)N(C)CC(=O)N(C)[C@H]3CCCCCN(C3=O)[C@@H](Cc3ccc(C(F)(F)F)cc3)C(=O)N(C)CC(=O)N[C@@H](CCc3cc(F)c(C(F)(F)F)c(F)c3)C(=O)N2C1 [PP0950]
HRAS/KRAS (ratio of KD value for HRAS to KD value for KRAS) [1]: B (a compound having 3 or more and less than 10 is denoted as B)
Kd ([2]; SPR, Single Cycle Kinetics): 6000 pM
NRAS/KRAS (ratio of KD value for NRAS to KD value for KRAS) [3]: A (a compound having 10 or more and less than 20 is denoted as A)

CCO[C@@H]1C[C@H]2C(=O)NC3(CCC3)C(=O)N(C)[C@@H](C3CCCC3)C(=O)N(C)[C@H](C(=O)N3CCOCC3)CC(=O)N(C)[C@@H](CC3CCC3)C(=O)N[C@@H]([C@@H](C)CC)C(=O)N(C)CC(=O)N(C)[C@H]3CCCCN(C3=O)[C@@H](Cc3ccc(C(F)(F)F)cc3)C(=O)N(C)CC(=O)N[C@@H](CCc3cc(F)c(C(F)(F)F)c(F)c3)C(=O)N2C1 [PP0713]
HRAS/KRAS (ratio of KD value with respect to HRAS to KD value with respect to KRAS) [1]: B (a compound having 3 or more and less than 10 is denoted as B)
Kd [2, 4]: 33 pM
NRAS/KRAS (ratio of KD value with respect to NRAS to KD value with respect to KRAS) [3]: C (A compound having a KD ratio of 0.1 or more and less than 3 is denoted as C)

CC[C@H](C)[C@@H]1NC(=O)[C@H](CC(C)C)N(C)C(=O)C[C@@H](C(=O)N2CCOCC2)N(C)C(=O)[C@H](C2CCCC2)N(C)C(=O)C2(CC2)NC(=O)[C@@H]2CCCN2C(=O)[C@H](CCc2cc(F)c(C(F)(F)F)c(F)c2)NC(=O)CN(C)C(=O)[C@H](Cc2ccc(C(F)(F)F)cc2)N2CCCCC[C@@H](C2=O)N(C)C(=O)CN(C)C1=O [PP0496]
HRAS/KRAS (ratio of KD value with respect to HRAS to KD value with respect to KRAS) [1]: B (a compound having 3 or more and less than 10 is denoted as B)
Kd [2, 4]: 4800 pM
NRAS/KRAS (ratio of KD value with respect to NRAS to KD value with respect to KRAS) [3]: B (a compound having 3 or more and less than 10 is denoted as B)
